Ends that are not written are not given here.
Tested on: methicillin resistant Staphylococcus aureus (MRSA) biofilm
Experiment: not given
Conditions: approximate peptide concentration […] (around 3 μg/ml); compared to untreated samples
Description: Methods of assessment of anti-biofilm activity—Biofilm formation was initially analyzed using a static abiotic solid surface assay as described elsewhere (de la Fuente-Nunez et al., 2012). Dilutions (1/100) of overnight cultures were incubated in BM2 biofilm-adjusted medium [62 mM potassium phosphate buffer (pH 7), 7 mM (NH4)2SO4, 2 mM MgSO4, 10 μM FeSO4, 0.4% (wt/vol) glucose, 0.5% (wt/vol) Casamino Acids], or a nutrient medium such as Luria Broth, in polypropylene microtiter plates (Falcon, United States) in the absence (control) or presence of peptide. Peptide was added at time zero (prior to adding the diluted, overnight cultures) in varying concentrations, and the decrease in biofilm formation was recorded at 22-46 h for most bacteria. Planktonic cells were removed, biofilm cells adhering to the side of the tubes were stained with crystal violet, and absorbance at 595 nm was measured using a microtiter plate reader (Bio-Tek Instruments Inc., United States). Some peptides were screened against two Gram negative organisms, P. aeruginosa and K. pneumoniae using a Bioflux apparatus (AutoMate Scientific, Berkeley, Calif.; http://www.autom8.com/bioflux_biofilm.html), which allows for the high-throughput, real-time analysis of biofilms.

Row | Substance | % Biofilm inhibition
1 | 1018-A5: single substituted 1018 peptide (VRLIAAVRIWRR-NH2) [Peptide 1018-A5] | 54%
2 | 1002-Q1: single substituted 1002 peptide (QQRWLIVWRIRK-NH2) [Peptide 1002-Q1] | 77%
3 | HH2-I2: single substituted HH2 peptide (VILRIRVAVIRA-NH2) | 54%
4 | HH2-A5: single substituted HH2 peptide (VQLRARVAVIRA-NH2) | 45%
5 | 1002-R1: single substituted 1002 peptide (RQRWLIVWRIRK-NH2) [Peptide 1002-R1] | 67%
6 | HH2-W12: single substituted HH2 peptide (VQLRIRVAVIRW-NH2) | 58%
7 | 1002-W7: single substituted 1002 peptide (VQRWLIWWRIRK-NH2) [Peptide 1002-W7] | 62%
8 | HH2-V10: single substituted HH2 peptide (VQLRIRVAVVRA-NH2) | 68%
9 | 1018-Q3: single substituted 1018 peptide (VRQIVAVRIWRR-NH2) [Peptide 1018-Q3] | 12%
10 | 1018-L4: single substituted 1018 peptide (VRLLVAVRIWRR-NH2) [Peptide 1018-L4] | 64%
11 | 1002-A3: single substituted 1002 peptide (VQAWLIVWRIRK-NH2) [Peptide 1002-A3] | 65%
12 | 1018-G9: single substituted 1018 peptide (VRLIVAVRGWRR-NH2) [Peptide 1018-G9] | 67%

Tested on: human peripheral blood mononuclear cells (MCP-1)
Experiment: SPOT-synthesized derivative screen: production of chemokine MCP-1
Type: cell-based
Conditions: Table 12; No LPS; human PBMC, peptide at ~18-24 μM
Description: Venous blood (20 ml) from healthy volunteers was collected in Vacutainer® collection tubes containing sodium heparin as an anticoagulant (Becton Dickinson, Mississauga, ON) in accordance with UBC ethical approval and guidelines. Blood was diluted 1:1 with complete RPMI 1640 medium and separated by centrifugation over a Ficoll-Paque® Plus (Amersham Biosciences, Piscataway, N.J., USA) density gradient. White blood cells were isolated from the buffy coat, washed twice in RPMI 1640 complete medium, and the number of peripheral blood mononuclear cells (PBMC) was determined by Trypan blue exclusion. PBMC (5×10^5) were seeded into 12-well tissue culture dishes (Falcon; Becton Dickinson) at 0.75 to 1×10^6 cells/ml at 37° C. in 5% CO2. The above conditions were chosen to mimic conditions for circulating blood monocytes entering tissues at the site of infection via extravasation.
Following incubation of the cells under various treatment regimens, the tissue culture supernatants were centrifuged at 1000×g for 5 min, then at 10,000×g for 2 min to obtain cell-free samples. Supernatants were aliquoted and then stored at −20° C. prior to assay for various chemokines by capture ELISA (eBioscience and BioSource International Inc., CA, USA respectively)

Row | Substance | Fold increase in MCP1 cf. untreated cells
13 | 1018-A5: single substituted 1018 peptide (VRLIAAVRIWRR-NH2) [Peptide 1018-A5] | 1.3
14 | 1002-Q1: single substituted 1002 peptide (QQRWLIVWRIRK-NH2) [Peptide 1002-Q1] | 6.9
15 | HH2-I2: single substituted HH2 peptide (VILRIRVAVIRA-NH2) | 11
16 | HH2-A5: single substituted HH2 peptide (VQLRARVAVIRA-NH2) | 1.3
17 | 1002-R1: single substituted 1002 peptide (RQRWLIVWRIRK-NH2) [Peptide 1002-R1] | 5.3
18 | HH2-W12: single substituted HH2 peptide (VQLRIRVAVIRW-NH2) | 44
19 | 1002-W7: single substituted 1002 peptide (VQRWLIWWRIRK-NH2) [Peptide 1002-W7] | 1.5
20 | HH2-V10: single substituted HH2 peptide (VQLRIRVAVVRA-NH2) | 36
21 | 1018-Q3: single substituted 1018 peptide (VRQIVAVRIWRR-NH2) [Peptide 1018-Q3] | 1.0
22 | 1018-L4: single substituted 1018 peptide (VRLLVAVRIWRR-NH2) [Peptide 1018-L4] | 0.9
23 | 1002-A3: single substituted 1002 peptide (VQAWLIVWRIRK-NH2) [Peptide 1002-A3] | 4.2
24 | 1018-G9: single substituted 1018 peptide (VRLIVAVRGWRR-NH2) [Peptide 1018-G9] | 0.9

Same assay, conditions: Table 12; No LPS; human PBMC, peptide at ~18-24 μM; background subtracted 139 (HH2 derivatives), 170 (1018 derivatives), 242 (1002 and hybrid peptides) pg/ml

Row | Substance | MCP1
25 | 1018-A5: single substituted 1018 peptide (VRLIAAVRIWRR-NH2) [Peptide 1018-A5] | 57 pg/mL
26 | 1002-Q1: single substituted 1002 peptide (QQRWLIVWRIRK-NH2) [Peptide 1002-Q1] | 1423.5 pg/mL
27 | HH2-I2: single substituted HH2 peptide (VILRIRVAVIRA-NH2) | 1748 pg/mL
28 | HH2-A5: single substituted HH2 peptide (VQLRARVAVIRA-NH2) | 59 pg/mL
29 | 1002-R1: single substituted 1002 peptide (RQRWLIVWRIRK-NH2) [Peptide 1002-R1] | 1043.2 pg/mL
30 | HH2-W12: single substituted HH2 peptide (VQLRIRVAVIRW-NH2) | 7325 pg/mL
31 | 1002-W7: single substituted 1002 peptide (VQRWLIWWRIRK-NH2) [Peptide 1002-W7] | 128.3 pg/mL
32 | HH2-V10: single substituted HH2 peptide (VQLRIRVAVVRA-NH2) | 5929 pg/mL
33 | 1018-Q3: single substituted 1018 peptide (VRQIVAVRIWRR-NH2) [Peptide 1018-Q3] | -2 pg/mL
34 | 1018-L4: single substituted 1018 peptide (VRLLVAVRIWRR-NH2) [Peptide 1018-L4] | -10 pg/mL
35 | 1002-A3: single substituted 1002 peptide (VQAWLIVWRIRK-NH2) [Peptide 1002-A3] | 787.2 pg/mL
36 | 1018-G9: single substituted 1018 peptide (VRLIVAVRGWRR-NH2) [Peptide 1018-G9] | -17 pg/mL

Tested on: LPS-stimulated human peripheral blood mononuclear cells (IL1-β)
Experiment: not given
Type: cell-based
Conditions: Table 12; cells stimulated with 10 ng/ml LPS
Description: LPS from P. aeruginosa strain H103 was highly purified free of proteins and lipids using the Darveau-Hancock method. Briefly, P. aeruginosa was grown overnight in LB broth at 37° C. Cells were collected and washed and the isolated LPS pellets were extracted with a 2:1 chloroform:methanol solution to remove contaminating lipids. Purified LPS samples were quantitated using an assay for the specific sugar 2-keto-3-deoxyoctosonic acid (KDO assay) and then resuspended in endotoxin-free water (Sigma-Aldrich).

Row | Substance | Fold change in IL1β relative to no peptide LPS stimulated cells
37 | 1018-A5: single substituted 1018 peptide (VRLIAAVRIWRR-NH2) [Peptide 1018-A5] | 0.57
38 | 1002-Q1: single substituted 1002 peptide (QQRWLIVWRIRK-NH2) [Peptide 1002-Q1] | 0.05
39 | HH2-I2: single substituted HH2 peptide (VILRIRVAVIRA-NH2) | 0.81
40 | HH2-A5: single substituted HH2 peptide (VQLRARVAVIRA-NH2) | 1.60
41 | 1002-R1: single substituted 1002 peptide (RQRWLIVWRIRK-NH2) [Peptide 1002-R1] | 0.05
42 | HH2-W12: single substituted HH2 peptide (VQLRIRVAVIRW-NH2) | 0.32
43 | 1002-W7: single substituted 1002 peptide (VQRWLIWWRIRK-NH2) [Peptide 1002-W7] | 0.05
44 | HH2-V10: single substituted HH2 peptide (VQLRIRVAVVRA-NH2) | 1.06
45 | 1018-Q3: single substituted 1018 peptide (VRQIVAVRIWRR-NH2) [Peptide 1018-Q3] | 1.03
46 | 1018-L4: single substituted 1018 peptide (VRLLVAVRIWRR-NH2) [Peptide 1018-L4] | 0.10
47 | 1002-A3: single substituted 1002 peptide (VQAWLIVWRIRK-NH2) [Peptide 1002-A3] | 0.05
48 | 1018-G9: single substituted 1018 peptide (VRLIVAVRGWRR-NH2) [Peptide 1018-G9] | 1.13

Same assay, conditions: Table 12; cells stimulated with 10 ng/ml LPS; LPS alone 1313 (HH2 derivatives), 1927 (1018 derivatives), 2455 (1002 and hybrid peptides) pg/ml

Row | Substance | IL1β Production
49 | 1018-A5: single substituted 1018 peptide (VRLIAAVRIWRR-NH2) [Peptide 1018-A5] | 752 pg/mL
50 | 1002-Q1: single substituted 1002 peptide (QQRWLIVWRIRK-NH2) [Peptide 1002-Q1] | 127 pg/mL
51 | HH2-I2: single substituted HH2 peptide (VILRIRVAVIRA-NH2) | 1060 pg/mL
52 | HH2-A5: single substituted HH2 peptide (VQLRARVAVIRA-NH2) | 2095 pg/mL
53 | 1002-R1: single substituted 1002 peptide (RQRWLIVWRIRK-NH2) [Peptide 1002-R1] | 127 pg/mL
54 | HH2-W12: single substituted HH2 peptide (VQLRIRVAVIRW-NH2) | 420 pg/mL
55 | 1002-W7: single substituted 1002 peptide (VQRWLIWWRIRK-NH2) [Peptide 1002-W7] | 127 pg/mL
56 | HH2-V10: single substituted HH2 peptide (VQLRIRVAVVRA-NH2) | 1390 pg/mL
57 | 1018-Q3: single substituted 1018 peptide (VRQIVAVRIWRR-NH2) [Peptide 1018-Q3] | 1359 pg/mL
58 | 1018-L4: single substituted 1018 peptide (VRLLVAVRIWRR-NH2) [Peptide 1018-L4] | 127 pg/mL
59 | 1002-A3: single substituted 1002 peptide (VQAWLIVWRIRK-NH2) [Peptide 1002-A3] | 127 pg/mL
60 | 1018-G9: single substituted 1018 peptide (VRLIVAVRGWRR-NH2) [Peptide 1018-G9] | 1481 pg/mL

From US20190315823A1, “SMALL CATIONIC ANTI-BIOFILM AND IDR PEPTIDES” (priority 2013, published 2019)
